Measured values as given in patent publication US11945781B2, “Compounds for the treatment of acute and chronic kidney disease” (Southern Research Institute, priority 2020, dated 2024).
Like-named read-outs stand apart in the source and are kept apart here.

Tested on: heme oxygenase-1 (HO-1)
Experiment: HO-1 promoter luciferase reporter screen (pHOGL3/4.5+220 stable HEK293 cells)
Assay type: cell-based, human
Details: Table 1; for Emax: HEK293, Emax as % of 5 μM hemin; for EC50: evaluation of thioquinolinones, HEK293 HO-1 reporter
Experimental: The generation of the pHOGL3/4.5+220 construct is described in Deshane, et al. (2010) “SpI regulates chromatin looping between an intronic enhancer and distal promoter of the human heme oxygenase-1 gene in renal cells” J Biol Chem 285(22): 16476-86. See also FIG. 1.
Briefly, BamHI sites were added to the 4.5-kb PCR product generated by long-range PCR from a bacterial artificial chromosome clone containing portions of chromosome 22 (accession no. Z82244), including the HO-1 gene. This fragment was cloned into the Bg/II restriction site of the multiple cloning region to make the parental clone (pHOGL3/4.5). The 220-bp intronic enhancer was amplified with SalI sites on either end and cloned into the SalI site of the vector to generate pHOGL3/4.5+220.
In order to generate cells that stably express luciferase expression vectors that lack a mammalian antibiotic selection cassette, HEK293 cells were co-transfected with either pHOGL3/4.5+220 (Deshane et al, 2010) or the Triple Mutant construct (Liby, Hock et al, 2005; Hock et al, 2007) and pcDNA3.1 Zeocin using Lipofectamine 2000. Cells were cultured in Zeocin (400 ug/ml; Invitrogen) for selection. Individual clones were sorted by flow cytometry and plated into a 96-well plate at a density of one cell per well. Clones were maintained and expanded in complete media (DMEM/10% FBS/1× antibiotic-antimycotic) supplemented with 100 ug/ml Zeocin, and incubated at 37° C. in 5% carbon dioxide. Incorporation of the Luciferase expression vectors was validated by assaying for luciferase. […]

Oc1ccc(CCSc2cccc3cccnc23)cc1 [Compound 13]
Emax (Homo sapiens): 122% | EC50 (Homo sapiens, read-out: EC50): 19000 nM

Oc1ccc(COc2cccc3cccnc23)cc1 [Compound 11]
EC50: Inactive

O=S(=O)(Cc1cc(F)c(O)c(F)c1)c1cccc2cccnc12 [Compound 10]
EC50: Inactive

Oc1ccc(CSc2cccc3cccnc23)cc1Cl [Compound 4]
Emax (Homo sapiens): 106% | EC50 (Homo sapiens, read-out: EC50): 340 nM

Fc1cc(F)cc(CSc2cccc3cccnc23)c1 [Compound 8]
EC50: Inactive

O=S(=O)(Nc1cc(F)c(O)c(F)c1)c1cccc2cccnc12 [Compound 21]
EC50: Inactive

Oc1ccc(CSc2cccc3cccnc23)cc1 [Compound 2]
Emax (Homo sapiens): 127% | EC50 (Homo sapiens, read-out: EC50): 340 nM

Oc1c(F)cc(CSc2ccncc2)cc1F [Compound 17]
EC50: Inactive

COc1c(F)cc(CSc2cccc3cccnc23)cc1F [Compound 19, 8-((3,5-difluoro-4-methoxybenzyl)thio)quinolone]
EC50: Inactive

O=C(Nc1cc(F)c(O)c(F)c1)c1cccc2cccnc12 [Compound 23]
EC50: Inactive

Oc1c(F)c(F)c(CSc2cccc3cccnc23)c(F)c1F [Compound 6]
Emax (Homo sapiens): 113% | EC50 (Homo sapiens, read-out: EC50): 1050 nM

O=C(Nc1cccc2cccnc12)c1cc(F)c(O)c(F)c1 [Compound 22]
EC50: Inactive

Oc1c(F)cc(CSc2ccnc3ccccc23)cc1F [Compound 15]
EC50: Inactive

Oc1c(F)cc(CSc2cccc3ccccc23)cc1F [Compound 18]
EC50: Inactive

Oc1c(F)cc(F)cc1CSc1cccc2cccnc12 [Compound 7]
Emax (Homo sapiens): 55.2% | EC50 (Homo sapiens, read-out: EC50): 5250 nM

Oc1ccc(CSc2cccc3cccnc23)cc1F [Compound 3]
Emax (Homo sapiens): 83.7% | EC50 (Homo sapiens, read-out: EC50): 200 nM

Oc1c(F)cc(CSc2cccc3cccnc23)cc1Cl [Compound 5]
Emax (Homo sapiens): 113% | EC50 (Homo sapiens, read-out: EC50): 420 nM

[O-][S+](Cc1cc(F)c(O)c(F)c1)c1cccc2cccnc12 (stereo not drawn) [Compound 9]
Emax (Homo sapiens): 106% | EC50 (Homo sapiens, read-out: EC50): 340 nM

Oc1c(F)cc(CSc2cccc3cccnc23)cc1F [Compound 1, 2,6-difluoro-4-((quinolin-8-ylthio)methyl)phenol]
Emax (Homo sapiens): 154% | EC50 (Homo sapiens, read-out: EC50): 430 nM

Oc1ccc(CSc2cccc3cccnc23)cc1 [Compound 14]
EC50: Inactive

Oc1c(F)cc(CCSc2cccc3cccnc23)cc1F [Compound 12]
EC50: Inactive

COc1c(F)cc(CCSc2cccc3cccnc23)cc1F [Compound 20]
Emax (Homo sapiens): 69.9% | EC50 (Homo sapiens, read-out: EC50): 20000 nM

Oc1c(F)cc(CSc2nccc3ccccc23)cc1F [Compound 16]
EC50: Inactive
